The results in this text go back to patent US9102669B2, “Substituted piperidinyl-pyridazinyl derivatives useful as SCD 1 inhibitors” (Janssen Pharmaceutica NV, priority 2011, dated 2015).

Some results are limits rather than exact numbers.

The target in assay [1] is SCD1 (Homo sapiens (Human), UniProt O00767). The experiment in a line: SCD1 13C-palmitic acid assay in A431 cells. Format: cell-based. As to conditions: read-out: A431 cells 13C-PA IC50. The method, boiled down:
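A431 cells with 0.05 mg/mL human insulin in 0.1% fatty-acid-free BSA assay medium; 4 h incubation at 37 °C before KOH saponification with D4-palmitate internal standard.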

Assay [2] has as its target SCD1 (Rattus norvegicus (Rat), UniProt P07308). The experiment in a line: SCD1 enzymatic assay in rat liver microsomes (RLM). The conditions noted are these: rat liver microsomes; for inhibition at 1 µM: 1 μM test compound, read-out: % Inh.@ 1 μM. Format: biochemical. The method, boiled down: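 Microsomes from livers of Sprague Dawley rats after fast/fat-free re-feeding cycles (10 μg per reaction) were incubated 2 h at room temperature with 20 μM stearoyl-CoA plus ^3H-stearoyl-CoA (2 μCi/mL), ATP, CoA, NADH and glutathione in 0.1 M K-phosphate, with compound. Reactions were acid-stopped and charcoal-treated; radioactivity was counted and fitted to a sigmoidal dose-response curve.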
On the technique in general: Microsomes from liver hold many membrane-bound enzymes, among them those of drug oxidation.

SCD1 (Homo sapiens (Human), UniProt O00767), sequence (O00767 whole entry): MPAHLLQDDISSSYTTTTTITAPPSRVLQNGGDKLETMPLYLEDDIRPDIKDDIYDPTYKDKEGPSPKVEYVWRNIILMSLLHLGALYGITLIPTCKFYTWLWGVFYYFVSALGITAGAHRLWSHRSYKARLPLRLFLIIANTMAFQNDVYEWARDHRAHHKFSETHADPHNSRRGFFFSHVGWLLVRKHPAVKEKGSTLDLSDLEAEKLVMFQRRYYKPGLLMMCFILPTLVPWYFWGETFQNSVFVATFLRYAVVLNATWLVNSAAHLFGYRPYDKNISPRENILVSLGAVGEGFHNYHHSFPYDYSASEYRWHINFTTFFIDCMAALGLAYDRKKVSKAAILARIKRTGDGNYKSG
SCD1 (Rattus norvegicus (Rat), UniProt P07308), sequence (P07308 whole entry): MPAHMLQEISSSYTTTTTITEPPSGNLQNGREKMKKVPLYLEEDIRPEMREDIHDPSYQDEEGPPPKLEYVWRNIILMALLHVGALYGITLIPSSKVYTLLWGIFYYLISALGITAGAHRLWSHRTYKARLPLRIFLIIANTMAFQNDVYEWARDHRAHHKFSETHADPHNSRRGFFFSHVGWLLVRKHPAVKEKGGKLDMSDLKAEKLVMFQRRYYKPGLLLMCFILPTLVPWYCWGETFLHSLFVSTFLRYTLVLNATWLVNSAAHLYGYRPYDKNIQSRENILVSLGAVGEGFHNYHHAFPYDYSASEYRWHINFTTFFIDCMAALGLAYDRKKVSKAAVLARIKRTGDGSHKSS

Broadly, the IC50 is the point on the concentration scale where inhibition reaches its midpoint. For the compound `Cn1cc(-c2ccc(N3CCC(n4ncc5ccc(C(F)(F)F)cc54)CC3)nn2)cn1` [compound 81, 1-(1-(6-(1-methyl-1H-pyrazol-4-yl)pyridazin-3-yl)piperidin-4-yl)-6-(trifluoromethyl)-1H-indazole], on SCD1 [1], the IC50 was 15 nM. For the same compound, on SCD1 [2], the inhibition at 1 µM is 96% and the IC50 came out at 8 nM.

Regarding `OCCn1cc(-c2ccc(N3CCC(n4ncc5ccc(F)cc54)CC3)nn2)cn1` [compound 82, 2-(4-(6-(4-(6-fluoro-1H-indazo-1-yl)piperidin-1-yl)pyridazin-3-yl)-1H-pyrazol-1-yl)ethanol], on SCD1 [1], the IC50 turned out to be 96 nM. Also, on SCD1 [2], the inhibition at 1 µM was 99% and the midpoint of inhibition, the IC50, lay at 53 nM.

With `Cn1cc(-c2ccc(N3CCC(n4nc(Cl)c5ccccc54)CC3)nn2)cn1` [compound 83, 3-chloro-1-(1-(6-(1-methyl-1H-pyrazol-4-yl)pyridazin-3-yl)piperidin-4-yl)-1H-indazole], the IC50 at SCD1 [1] was 11 nM. Further, at SCD1 [2], the inhibition at 1 µM was 102% and 6 nM corresponded to half-maximal inhibition (IC50).

In the case of `Cc1cnn(-c2ccc(N3CCC(c4noc5ccc(F)cc45)CC3)nn2)c1` [compound 94, 5-fluoro-3-(1-(6-(4-methyl-1H-pyrazol-1-yl)pyridazin-3-yl)piperidin-4-yl)benzo[d]isoxazote], on SCD1 [1], the IC50 turned out to be 40 nM. Further, at SCD1 [2], the inhibition at 1 µM amounted to 96% and the IC50 worked out at 12 nM.

Consider `OCc1cnn(-c2ccc(N3CCC(c4noc5ccc(F)cc45)CC3)nn2)c1` [compound 95, (1-(6-(4-(5-fluorobenzo[d]isoxazol-3-yl)piperidin-1-yl)pyridazin-3-yl)-1H-pyrazol-4-yl)methanol], for which the 50% inhibitory concentration (IC50) at SCD1 [1] is 62 nM. Further, at SCD1 [2], the inhibition at 1 µM stood at 88% and the IC50 was determined as 96 nM.

As to `COCc1cnn(-c2ccc(N3CCC(c4noc5ccc(F)cc45)CC3)nn2)c1` [compound 96, 5-fluoro-3-(1-(6-(4-(methoxymethyl)-1H-pyrazol-1-yl)pyridazin-3-yl)piperidin-4-yl)benzo[d]isoxazole], at SCD1 [1], the IC50 amounted to 22 nM. Further, at SCD1 [2], the inhibition at 1 µM was 98% and the IC50 is 8 nM.

Take `CNCc1cnn(-c2ccc(N3CCC(c4noc5ccc(F)cc45)CC3)nn2)c1` [compound 97, 1-(1-(6-(4-(5-fluorobenzo[d]isoxazol-3-yl)piperidin-1-yl)pyridazin-3-yl)-1H-pyrazol-4-yl)-N-methylmethanamine]: the IC50 on SCD1 [1] was more than 1000 nM. In addition, the inhibition at 1 µM at SCD1 [2] stood at 11%.

As for `OCCc1cnn(-c2ccc(N3CCC(c4noc5ccc(F)cc45)CC3)nn2)c1` [compound 98, 2-(1-(6-(4-(5-fluorobenzo[d]isoxazol-3-yl)piperidin-1-yl)pyridazin-3-yl)-1H-pyrazol-4-yl)ethanol], the IC50 was 12 nM at SCD1 [1] and 60 nM at SCD1 [2]. Besides, the inhibition at 1 µM at SCD1 [2] was found to be 88%.
